# Assay results as given in patent US12291516B2, “Substituted 1-amino-1H-imidazole-5-carboxamide as Bruton's tyrosine kinase inhibitors” (Henan Zhiwei Biomedicine Co., Ltd., priority 2019, dated 2025).
# pIC50: −log10 of the molar value. Like-named read-outs stand apart in the source and are kept apart here.
# Columns and labels:
# BTK [1] = molecular target: T1, BTK (Homo sapiens (Human), UniProt Q06187); test: BTK inhibition assay by Reaction Biology Corporation (33P-ATP, filter-binding); type: biochemical; conditions: footnote a: from Reaction Biology Corporation
# Description: (§1) BTK inhibition Assay and selectivity Assay The assay was conducted either a by a third party (Reaction Biology Corporation, PA, USA) or in house.
# a) Reagent and Procedure by Reaction Biology Corporation:
# Base Reaction buffer; 20 mM Hepes (pH 7.5), 10 mM MgCl2, 1 mM EGTA, 0.02%. Brij35, 0.02 mg/ml BSA, 0.1 mM Na3VO4, 2 mM DTT, 1% DMSO. Required cofactors were added individually to each kinase reaction. Compound handling: testing compounds were dissolved in 100% DMSO to specific concentration. The serial dilution was conducted by Integra Viaflo Assist in DMSO.
# The substrate was prepared in freshly prepared reaction buffer of above and required cofactors were added to the substrate solution. The kinase was delivered to the substrate solution and the mixture was gently mixed. Testing compounds in 100% DMSO was added to the kinase reaction mixture by Acoustic technology (Echo550; nanoliter range) and the new mixture was incubated for 20 min at room temperature. Then ^33P-ATP (Specific activity 10 μCi/μl) was added to the reaction mixture to initiate the reaction and the mixture was incubated for 2 hours at room temperature. The radioactivity was detected by filter-binding method and the kinase activity data was expressed as the percent of remaining kinase activity in test sample compared to vehicle (dimethyl sulfoxide) reaction. IC50 values and curve fits were obtained using Prism (GraphPad Software). The result is outlined in Table-I
# BTK [2] = molecular target: T1, BTK; test: In house ELISA kinase inhibition assay, BTK; type: biochemical; conditions: footnote b: from in house procedure (ELISA)
# Description: as §1
# (§2) b) In House Procedure for BTK, BMX, EGFR and ITK:
# (§3) Kinase inhibitory activities of compounds were evaluated using the Enzyme-linked immunosorbent assay (ELISA). The kinase enzyme of BTK, BMX, EGFR and ITK were purchased from Carna Bioscience (Kobe, Japan). A total of 10 ng/mL antiphosphotyrosine (PY713) antibody (abcam, Cambridge Science Park, UK) was precoated in 96-well ELISA plates. The kinase enzymes in each reaction well were set to BTK (101.25 ng/mL), BMX (90 ng/mL), EGFR (90 ng/mL) or ITK (120 ng/mL) and incubated with indicated drugs in 1× reaction buffer (50 mmol/L HEPES pH 7.4, 20 mmol/L MgCl2, 0.1 mmol/L MnCl2, 1 mmol/L DTT) containing 20 μmol/L (the final concentration of substrate in ITK reaction was 30 μmol/L) substrate (NH2-[…]-biotin) at 25° C. for 1 h. Then, a total of 3 μmol/L ATP was added and the reaction was continued for 2 h. The products of reaction were transferred into 96-well ELISA plates containing antibody and incubated at 25° C. for 30 min. After incubation, the wells were washed with PBS and then incubated with horseradish peroxidase (HRP)-conjugated streptavidin. The wells were visualized using 3,3′,5,5′-tetramethylbenzidine (TMB), and chromogenic reaction was ended with 2 mol/L H2SO4, the absorbance was read with a multimode plate reader (PerkinElmer, USA) at 450 nm. IC50 values and curve fits were obtained using Prism (GraphPad Software). (Table I-IV)
# TMD-8 = test: In-vitro antitumor activity assay (CellTiter-Glo cell antiproliferative activity); type: cell-based; conditions: Homo sapiens, TMD8, TMD-8 cells, 72 h
# Description: In-Vitro Antitumor Activity Assay
# Method: Reagent and procedure by Hefei PreceDo pharmaceuticals Co. Ltd.
# Cell antiproliferative activity was evaluated by the CellTiter-Glo (Promega, USA) assay. Make 1000× compounds solution in DMSO, add 1 μl 1000× compounds to […] growth medium to make 20× compounds. Dilute cell suspensions in growth medium to desired density and 95 μl were taken to 96-well plate. Add 5 μl 20× compounds into 96-well plate according to the plate map. Final DMSO concentration in each well was 0.1%. Then the cell was incubated at 37° C., 5% CO2 for 72 h. Equilibrate the assay plate to room temperature before measurement. Add 20 μl of CellTiter-Glo© Reagent into each well. Mix contents for 2 minutes on an orbital shaker to induce cell lysis. Incubate at room temperature for 10 minutes to stabilize luminescent signal. Record luminescence using EnVision Multilabel Reader (PerkinElmer). Cell viability (CV %) was calculated relative to vehicle (DMSO) treated control wells using following formula: Cell viability (%)=(RLU compound−RLU blank)/(RLU control−RLU blank)*100%. The IC50 values were calculated using GraphPad Prism 6.0 software, fitting to a 4-parameter equation to generate concentration response curves. All assays were conducted with three parallel samples and three repetitions.
# BMX = BMX (Homo sapiens (Human), UniProt P51813); test: In house ELISA kinase inhibition assay, BMX; type: biochemical; conditions: for pIC50: in house ELISA; for Selectivity ratio: selectivity for BTK and BMX
# Description: as §1, §2, §3
# [3] = Rat pharmacokinetic assay; type: in vivo
# Description: Rat Pharmacokinetic Assay
# Method: Reagent and Procedure by Hefei PreceDo Pharmaceuticals Co. Ltd.
# Male Sprague-Dawley rats with 6-8 weeks of age were purchased from Beijing Vital River Laboratory Animal Technology Co., Ltd. Rats were randomly assigned with three rats per group. A single dose of compound 84 or 85 was administered by tail vein injection in iv group. In po group, compound 84 or 85 was orally. Blood samples (˜0.25 mL) were obtained by orbital venous plexus at 2 min (iv only), 5 min, 15 min, 1 h, 2 h, 4 h, 6 h, 8 h, 12 h and 24 h (po only) post dose. After centrifuged at 4000 rpm for 10 min at 4° C., plasma was collected and stored at −20° C. until determine by LC-MS/MS.
# ITK = ITK (Homo sapiens (Human), UniProt Q08881); test: In house ELISA kinase inhibition assay, ITK; type: biochemical; conditions: for pIC50: in house ELISA; for Selectivity ratio: selectivity for BTK and ITK
# Description: as §1, §2, §3
# EGFR = EGFR (Homo sapiens (Human), UniProt P00533); test: In house ELISA kinase inhibition assay, EGFR; type: biochemical; conditions: for pIC50: in house ELISA; for Selectivity ratio: selectivity for BTK and EGFR
# Description: as §1, §2, §3
# [4] = male, Sprague-Dawley, plasma, iv 5 mg/kg
# [5] = male, Sprague-Dawley, plasma, iv 1 mg/kg
# T1 sequence (Q06187 whole entry): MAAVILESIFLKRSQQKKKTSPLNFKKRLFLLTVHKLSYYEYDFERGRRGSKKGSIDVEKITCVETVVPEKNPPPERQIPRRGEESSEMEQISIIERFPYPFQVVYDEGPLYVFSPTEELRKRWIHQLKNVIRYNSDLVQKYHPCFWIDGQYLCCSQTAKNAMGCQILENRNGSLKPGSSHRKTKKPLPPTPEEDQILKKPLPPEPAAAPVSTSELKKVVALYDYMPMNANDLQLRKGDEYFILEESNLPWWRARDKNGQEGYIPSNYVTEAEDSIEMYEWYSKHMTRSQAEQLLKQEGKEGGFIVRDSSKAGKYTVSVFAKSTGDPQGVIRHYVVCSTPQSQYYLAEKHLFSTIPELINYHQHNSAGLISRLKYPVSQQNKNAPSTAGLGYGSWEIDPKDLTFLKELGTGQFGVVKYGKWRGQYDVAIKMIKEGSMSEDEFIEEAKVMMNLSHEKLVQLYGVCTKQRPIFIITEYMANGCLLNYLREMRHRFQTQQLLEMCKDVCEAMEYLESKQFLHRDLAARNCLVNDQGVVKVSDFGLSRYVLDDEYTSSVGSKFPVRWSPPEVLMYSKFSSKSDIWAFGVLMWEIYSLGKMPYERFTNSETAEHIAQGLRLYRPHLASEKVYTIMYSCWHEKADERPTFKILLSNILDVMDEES
# ITK, sequence (Q08881 whole entry): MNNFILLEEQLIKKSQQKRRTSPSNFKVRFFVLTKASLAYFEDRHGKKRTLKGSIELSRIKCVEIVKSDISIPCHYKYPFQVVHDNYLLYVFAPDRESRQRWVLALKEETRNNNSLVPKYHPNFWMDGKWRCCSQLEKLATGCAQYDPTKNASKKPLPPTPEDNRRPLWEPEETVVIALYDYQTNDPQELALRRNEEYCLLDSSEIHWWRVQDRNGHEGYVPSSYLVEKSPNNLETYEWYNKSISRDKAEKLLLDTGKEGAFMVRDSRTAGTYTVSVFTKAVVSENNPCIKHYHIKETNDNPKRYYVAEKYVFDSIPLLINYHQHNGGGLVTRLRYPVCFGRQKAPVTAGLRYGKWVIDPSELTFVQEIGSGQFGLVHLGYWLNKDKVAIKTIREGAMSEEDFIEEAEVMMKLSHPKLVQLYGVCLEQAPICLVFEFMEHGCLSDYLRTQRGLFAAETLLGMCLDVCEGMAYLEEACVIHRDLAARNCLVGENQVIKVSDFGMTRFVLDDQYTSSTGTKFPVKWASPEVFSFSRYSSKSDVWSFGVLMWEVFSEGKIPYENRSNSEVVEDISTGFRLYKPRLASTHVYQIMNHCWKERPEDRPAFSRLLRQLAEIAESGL
# EGFR, sequence (P00533 25-1210): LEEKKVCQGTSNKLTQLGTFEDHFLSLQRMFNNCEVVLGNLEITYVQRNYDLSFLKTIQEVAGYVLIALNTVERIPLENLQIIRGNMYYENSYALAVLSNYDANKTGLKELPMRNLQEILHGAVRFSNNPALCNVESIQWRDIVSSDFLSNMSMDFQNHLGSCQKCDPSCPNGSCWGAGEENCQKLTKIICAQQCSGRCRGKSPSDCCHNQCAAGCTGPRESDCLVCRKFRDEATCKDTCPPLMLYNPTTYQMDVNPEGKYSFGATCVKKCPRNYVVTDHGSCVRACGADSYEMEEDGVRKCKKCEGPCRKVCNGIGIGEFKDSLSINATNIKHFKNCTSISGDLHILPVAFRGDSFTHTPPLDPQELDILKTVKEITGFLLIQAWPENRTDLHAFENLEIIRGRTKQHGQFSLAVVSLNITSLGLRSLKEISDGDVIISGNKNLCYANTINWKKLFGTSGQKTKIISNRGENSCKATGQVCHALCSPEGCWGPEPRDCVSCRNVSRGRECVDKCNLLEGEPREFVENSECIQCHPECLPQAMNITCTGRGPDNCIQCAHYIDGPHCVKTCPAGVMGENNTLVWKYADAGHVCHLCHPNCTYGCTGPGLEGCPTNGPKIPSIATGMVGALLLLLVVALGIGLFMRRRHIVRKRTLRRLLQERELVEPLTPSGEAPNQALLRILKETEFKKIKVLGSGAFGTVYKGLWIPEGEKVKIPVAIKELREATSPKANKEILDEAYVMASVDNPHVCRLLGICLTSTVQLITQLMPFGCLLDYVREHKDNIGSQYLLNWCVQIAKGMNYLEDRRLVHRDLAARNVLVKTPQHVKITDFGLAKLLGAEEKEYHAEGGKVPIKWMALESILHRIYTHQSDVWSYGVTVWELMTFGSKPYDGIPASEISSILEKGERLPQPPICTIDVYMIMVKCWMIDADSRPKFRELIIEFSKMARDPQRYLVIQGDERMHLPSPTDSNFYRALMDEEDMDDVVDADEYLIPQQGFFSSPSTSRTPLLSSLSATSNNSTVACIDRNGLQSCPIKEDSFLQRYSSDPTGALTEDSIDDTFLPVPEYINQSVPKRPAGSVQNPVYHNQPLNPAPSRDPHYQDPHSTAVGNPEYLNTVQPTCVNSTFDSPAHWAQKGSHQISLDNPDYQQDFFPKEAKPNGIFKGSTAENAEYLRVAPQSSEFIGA
# BMX, sequence (P51813 whole entry): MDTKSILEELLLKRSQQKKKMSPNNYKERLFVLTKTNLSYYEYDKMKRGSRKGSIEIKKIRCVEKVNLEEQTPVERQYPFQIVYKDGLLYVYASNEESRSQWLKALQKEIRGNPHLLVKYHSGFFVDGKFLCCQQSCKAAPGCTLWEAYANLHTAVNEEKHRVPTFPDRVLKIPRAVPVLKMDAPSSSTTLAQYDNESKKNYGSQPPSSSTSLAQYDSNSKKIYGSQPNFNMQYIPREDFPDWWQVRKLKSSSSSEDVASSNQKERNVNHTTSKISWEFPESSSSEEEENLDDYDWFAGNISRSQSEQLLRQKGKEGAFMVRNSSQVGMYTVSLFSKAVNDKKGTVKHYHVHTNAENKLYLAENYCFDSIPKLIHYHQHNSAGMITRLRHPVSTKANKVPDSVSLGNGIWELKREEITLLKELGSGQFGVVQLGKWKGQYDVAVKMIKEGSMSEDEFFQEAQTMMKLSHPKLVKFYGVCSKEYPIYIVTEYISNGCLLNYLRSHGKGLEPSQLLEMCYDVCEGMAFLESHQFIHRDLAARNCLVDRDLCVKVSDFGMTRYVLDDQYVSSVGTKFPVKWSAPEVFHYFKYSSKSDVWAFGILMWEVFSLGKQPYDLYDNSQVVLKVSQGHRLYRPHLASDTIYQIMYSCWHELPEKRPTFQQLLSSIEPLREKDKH
Structure (SMILES),pIC50 (BTK [1]),pIC50 (BTK [2]),IC50 (TMD-8),pIC50 (BMX),Selectivity ratio (BMX),pIC50 (ITK),Selectivity ratio (ITK),pIC50 (EGFR),Selectivity ratio (EGFR),also measured
"C=CC(=O)N1CCC[C@H]1c1nc(-c2ccc(C(=O)Nc3ccccn3)cc2)c(C(N)=O)n1N [Example 1, (S)-2-(1-acryloylpyrrolidin-2-yl)-1-amino-4-(4-(pyridin-2-yl-carbamoyl)phenyl)-1H-imidazole-5-carboxamide]",6.88,6.75,–,–,–,–,–,–,–,–
"C#CC(=O)N1CCC[C@H]1c1nc(-c2ccc(C(=O)Nc3ccc(C)cn3)cc2)c(C(N)=O)n1N [Example 26, (S)-1-amino-4-(4-((5-methylpyridin-2-yl)carbamoyl)phenyl)-2-(1-propioloylpyrrolidin-2-yl)-1H-imidazole-5-carboxamide]",7.90,7.74,–,–,–,–,–,–,–,–
"C=CC(=O)N1CCCC[C@H]1c1nc(-c2ccc(C(=O)Nc3ccccn3)cc2)c(C(N)=O)n1N [Example 46, (S)-2-(1-acryloylpiperidin-2-yl)-1-amino-4-(4-(pyridin-2-ylcarbamoyl)phenyl)-1H-imidazole-5-carboxamide]",7.35,7.88,–,–,–,–,–,–,–,–
"C=CC(=O)N1CCCC[C@H]1c1nc(-c2ccc(C(=O)Nc3cc(C(C)C)ccn3)cc2)c(C(N)=O)n1N [Example 71, (S)-2-(1-acryloylpiperidin-2-yl)-1-amino-4-(4-((4-isopropylpyridin-2-yl)carbamoyl)phenyl)-1H-imidazole-5-carboxamide]",7.26,7.65,–,–,–,–,–,–,–,–
"C=CC(=O)N1CCCC[C@H]1c1nc(-c2ccc(C(=O)Nc3cc(C(F)(F)F)ccn3)cc2)c(C(N)=O)n1N [Example 84, (S)-2-(1-acryloylpiperidin-2-yl)-1-amino-4-(4-((4-(trifluoromethyl)pyridin-2-yl)carbamoyl)phenyl)-1H-imidazole-5-carboxamide]",–,8.46,24.5 nM,6.94,33.0,6.22,175.6,6.81,45,"CL ([3]; iv 5 mg/kg): 13.4 mL/min/kg; T1/2 ([3]; iv 5 mg/kg): 1.32 h; Vd ([3]; iv 5 mg/kg): 1.50 L/kg; clearance [3, 4]: 13.4 mL/min/kg; half-life [3, 4]: 1.32 h; AUC ([3]; male, Sprague-Dawley, plasma, po 5 mg/kg, read-out: AUC): 2000 ng·h/mL; Cmax ([3]; male, Sprague-Dawley, plasma, po 5 mg/kg, read-out: Cmax): 501 ng/mL; AUC ([3]; po 5 mg/kg): 1996 ng·h/mL; Cmax ([3]; po 5 mg/kg): 501 ng/mL; F ([3]; po 5 mg/kg): 32.4%; T1/2 ([3]; po 5 mg/kg): 1.35 h"

# Second part, led by results:
pIC50 (BTK [1]),pIC50 (BTK [2]),IC50 (TMD-8),pIC50 (BMX),Selectivity ratio (BMX),pIC50 (ITK),Selectivity ratio (ITK),pIC50 (EGFR),Selectivity ratio (EGFR),Structure (SMILES),also measured
7.61,7.52,–,–,–,–,–,–,–,"C#CC(=O)N1CCC[C@H]1c1nc(-c2ccc(C(=O)Nc3cc(C)ccn3)cc2)c(C(N)=O)n1N [Example 17, (S)-1-amino-4-(4-((4-methylpyridin-2-yl)carbamoyl)phenyl)-2-(1-propioloylpyrrolidin-2-yl)-1H-imidazole-5-carboxamide]",–
5.14,5.51,–,–,–,–,–,–,–,"CC#CC(=O)N1CCC[C@H]1c1nc(-c2ccc(C(=O)Nc3cc(C)ccn3)cc2)c(C(N)=O)n1N [Example 18, (S)-1-amino-2-(1-(but-2-ynoyl)pyrrolidin-2-yl)-4-(4-((4-methylpyridin-2-yl)carbamoyl)phenyl)-1H-imidazole-5-carboxamide]",–
8.00,7.95,19 nM,–,–,–,–,–,–,"C=CC(=O)N1CCCC[C@H]1c1nc(-c2ccc(C(=O)Nc3cc(Cl)ccn3)cc2)c(C(N)=O)n1N [Example 72, (S)-2-(1-acryloylpiperidin-2-yl)-1-amino-4-(4-((4-chloropyridin-2-yl)carbamoyl)phenyl)-1H-imidazole-5-carboxamide]",–
–,8.14,54.3 nM,6.10,108.2,4.52,4115,4.93,1619,"CC#CC(=O)N1CCCC[C@H]1c1nc(-c2ccc(C(=O)Nc3cc(C(F)(F)F)ccn3)cc2)c(C(N)=O)n1N [Example 85, (S)-1-amino-2-(1-(but-2-ynoyl)piperidin-2-yl)-4-(4-((4-(trifluoromethyl)pyridin-2-yl)carbamoyl)phenyl)-1H-imidazole-5-carboxamide]","clearance [3, 5]: 50 mL/min/kg; half-life [3, 5]: 1.97 h; Vd ([3]; male, Sprague-Dawley, plasma, iv 1 mg/kg, read-out: Vd): 8.62 L/kg; half-life ([3]; male, Sprague-Dawley, plasma, po 10 mg/kg): 2.74 h; AUC ([3]; male, Sprague-Dawley, plasma, po 10 mg/kg, read-out: AUC): 3250 ng·h/mL; Cmax ([3]; male, Sprague-Dawley, plasma, po 10 mg/kg, read-out: Cmax): 723 ng/mL; AUC ([3]; po 10 mg/kg): 3247 ng·h/mL; F ([3]; po 10 mg/kg): 90.6%; T1/2 ([3]; po 10 mg/kg): 2.74 h"
7.97,–,35.1 nM,6.65,21.2,6.27,49.9,5.33,439,"CC#CC(=O)N1CCCC[C@H]1c1nc(-c2ccc(C(=O)Nc3cc(I)ccn3)cc2)c(C(N)=O)n1N [Example 90, (S)-1-amino-2-(1-(but-2-ynoyl)piperidin-2-yl)-4-(4-((4-iodopyridin-2-yl)carbamoyl)phenyl)-1H-imidazole-5-carboxamide]",–
7.83,–,90.8 nM,6.81,10.5,4.48,2255,5.96,74,"CC#CC(=O)N1CCCC[C@H]1c1nc(-c2ccc(C(=O)Nc3cc(-c4ccc(F)cc4)ccn3)cc2)c(C(N)=O)n1N [Example 92, (S)-1-amino-2-(1-(but-2-ynoyl)piperidin-2-yl)-4-(4-((4-(4-fluorophenyl)pyridin-2-yl)carbamoyl)phenyl)-1H-imidazole-5-carboxamide]",–
–,7.71,37 nM,5.97,55.8,4.78,850,5.40,206,"CC#CC(=O)N1CCCC[C@H]1c1nc(-c2ccc(C(=O)Nc3cc(Cl)ccn3)cc2)c(C(N)=O)n1N [Example 98, (S)-1-amino-2-(1-(but-2-ynoyl)piperidin-2-yl)-4-(4-((4-chloropyridin-2-yl)carbamoyl)phenyl)-1H-imidazole-5-carboxamide]",–
